Here are results for three compounds from patent publication US10918599B2, “Serum-stable compositions and methods for light-triggered release of materials” (priority 2015, dated 2021).

Data set [1] has as its system MIA Paca-2 tumors. Description: Survival study, phototreatment efficacy (Example 1). The class given is in vivo.
Protocol: Survival study. 5×10^6 MIA Paca-2 cells (obtained from ATTC) were injected in the right flank female nude mice mice (5 weeks, Jackson Labs, #007850). […] N=5-6. Dose for Dox-PoP is 7 mg/kg for Dox and the dose of PoP was adjusted to be equivalent to that of Dox-PoP 7 mg/kg (Dox to lipid loading ratio 1:5), which is 1.225 mg/kg (1.21 μmol/kg Pyro-phospholipid). […] 21 mg/kg of sterically stabilized liposomal Dox (HSPC:CHOL:DSPE-PEG-2K=56.3:38.4:5.3% mole) was used for standard treatment of Doxil®. Free Dox 7 mg/kg was used as a free drug control. 1 h after intravenous injection, tumors that need laser treatment were all irradiated at a fluence rate of 300 W/cm^2 for 16 min 40 s (total fluence 300 J/cm^2). HPPH was diluted in PBS containing 2% ethanol and 0.2% Tween 80 and injected at a dose of 1.21 μmol/kg. Light treatment was performed 24 h post injection. Tumor size was monitored 2-3 times per week and tumor volumes were estimated by measuring three tumor dimensions using a caliper and the ellipsoid formula: Volume=π·L·W·H/6, where L, W and H are the length, width and height of the tumor, respectively. The weights of the mice were monitored every week. MIA PaCa-2 mice were sacrificed when the volume exceeded 10 times of its initial volume.
For Kaplan-Meier survival curve, each pair of group were compared by Log-rank (Mantel-Cox) test. […]
The subject of data set [2] is MIA Paca-2 tumors. To be noted: mice, single dose; cited from earlier work.
For data set [3] the following is noted: mice; cited from earlier work.

As for `COc1cccc2c1C(=O)c1c(O)c3c(c(O)c1C2=O)C[C@@](O)(C(=O)CO)C[C@@H]3O[C@H]1C[C@H](N)[C@H](O)[C@H](C)O1` [Free Dox, Doxorubicin], the median survival in data set [1] (7 mg/kg, single dose, no laser) worked out at 19 days. The maximum tolerated dose in data set [2] is 7 mg/kg.

Regarding `C=CC1=C(C)c2cc3[nH]c(c4c5nc(cc6[nH]c(cc1n2)c(C)c6CC)C(C)=C5C(=O)C4)C(CCC(=O)OC(COC(=O)CCCCCCCCCCCCCCC)COP(=O)([O-])OCC[N+](C)(C)C)C3C` (stereo not shown) [Pyro-phospholipid], the well-tolerated intravenous dose in data set [3] is no more than 1000 mg/kg.

For HPPH, the median survival in data set [1] (conventional PDT, 1.21 μmol/kg, light 24 h post injection, 300 J/cm^2) stood at 38 days.
